ChEMBL document CHEMBL4011631, “Trisubstituted Pyridinylimidazoles as Potent Inhibitors of the Clinically Resistant L858R/T790M/C797S EGFR Mutant: Targeting of Both Hydrophobic Regions and the Phosphate Binding Site” (J Med Chem, 2017)
Calls of active or inactive are those of the source. No cut-off for these calls is given here.

What was measured:
[1] = biological target: Epidermal growth factor receptor (Homo sapiens, UniProt P00533, L858R/T790M)
NCI-H1975 = assay: cells; type: functional, cell-based; details: Homo sapiens, NCI-H1975, 96 h
[2] = biological target: Epidermal growth factor receptor (Homo sapiens, UniProt P00533); type: ADME
Description: Inhibition of human N-terminal GST-fused EGFR cytoplasmic domain (669 to 1210 residues) expressed in baculovirus using TK-substrate-biotin preincubated for 30 mins followed by substrate addition measured after 25 mins by HTFR assay

A-431 = assay: cells; type: ADME, cell-based; details: Homo sapiens, A-431, 96 h
Description: Antiproliferative activity against human A431 cells harboring wild type EGFR assessed as growth inhibition after 96 hrs by CellTiter-Glo assay

[3] = biological target: Epidermal growth factor receptor (Homo sapiens, UniProt P00533, L858R)
[4] = system: Epidermal growth factor receptor (Homo sapiens), P00533 [T790M]; assay: Covalent binding affinity to EGFR T790M mutant (unknown origin) at 100 uM after 1 hr by mass spectrometric analysis
[5] = Drug degradation in human liver microsomes at 100 uM preincubated for 5 mins with NADPH-regenerating system followed by liver microsomes addition measured after 240 mins by LC-MS analysis; type: ADME, microsome; details: read-out: Drug degradation
[6] = biological target: Epidermal growth factor receptor (Homo sapiens, UniProt P00533, C797S/L858R/T790M); assay: Inhibition of human EGFR T790M/C797S/L858R triple mutant preincubated for 20 mins followed by [33P]ATP addition measured after 2 hrs

CSc1nc(-c2ccc(F)cc2)c(-c2ccnc(Nc3cc(N4CCN(C)CC4)cc([N+](=O)[O-])c3)c2)[nH]1
IC50 [1]: 12 nM
EC50 (NCI-H1975): 13000 nM
IC50 [2]: 2.1 nM
EC50 (A-431): 7800 nM
IC50 [3]: < 1 nM

C=CC(=O)Nc1ccc(OC)c(Nc2cc(-c3[nH]c(SC)nc3C3CCCC3)ccn2)c1
IC50 [1]: 4.5 nM
EC50 (NCI-H1975): 1400 nM
IC50 [2]: < 1 nM
EC50 (A-431): 7800 nM
IC50 [3]: < 1 nM

C=CC(=O)Nc1ccc(OC)c(Nc2cc(-c3[nH]c(SC)nc3-c3ccc(F)cc3)ccn2)c1
Activity [4]: Active
EC50 (NCI-H1975): < 14 nM
EC50 (A-431): 4100 nM
metabolised at 4 h, 100 µM [5]: 23%

NCCSc1nc(-c2ccc(F)cc2)c(-c2ccnc(Nc3ccccc3)c2)[nH]1
IC50 [1]: 29 nM
EC50 (NCI-H1975): 7200 nM
IC50 [2]: 4.8 nM
EC50 (A-431): 11000 nM
IC50 [3]: 2.6 nM

CSc1nc(-c2ccc(F)cc2)c(-c2ccnc(Nc3ccccc3)c2)[nH]1
IC50 [1]: 130 nM
EC50 (NCI-H1975): 22000 nM
IC50 [2]: 24 nM
EC50 (A-431): 11000 nM
IC50 [3]: 2.5 nM

C=CC(=O)Nc1cccc(Oc2nc(Nc3ccc(N4CCN(C)CC4)cc3OC)ncc2Cl)c1
EC50 (NCI-H1975): 100 nM
EC50 (A-431): 2200 nM

C=CC(=O)Nc1ccc(OC)c(Nc2cc(-c3cnc(SC)[nH]3)ccn2)c1
IC50 [1]: 8.6 nM
EC50 (NCI-H1975): 2000 nM
IC50 [2]: 17 nM
EC50 (A-431): 4100 nM
IC50 [3]: 5.6 nM

C=CC(=O)NCc1cn(Cc2cccc(Nc3cc(-c4[nH]c(SC)nc4-c4ccc(F)cc4)ccn3)c2)nn1
IC50 [1]: 597 nM
EC50 (NCI-H1975): 23000 nM
IC50 [2]: 164 nM
EC50 (A-431): 24000 nM
IC50 [3]: 46 nM

C=CC(=O)Nc1ccc(OC)c(Nc2cc(-c3[nH]c(SC)nc3C3CCC3)ccn2)c1
IC50 [1]: 6.8 nM
EC50 (NCI-H1975): 2000 nM
IC50 [2]: < 1 nM
EC50 (A-431): 8900 nM
IC50 [3]: < 1 nM

C=CC(=O)Nc1cc(Nc2cc(-c3[nH]c(SC)nc3-c3ccc(F)cc3)ccn2)cc(N2CCOCC2)c1
IC50 [6]: 53 nM
IC50 [1]: < 1 nM
EC50 (NCI-H1975): 1300 nM
IC50 [2]: < 1 nM
EC50 (A-431): 1500 nM
IC50 [3]: < 1 nM

NCCCSc1nc(-c2ccc(F)cc2)c(-c2ccnc(Nc3ccccc3)c2)[nH]1
IC50 [1]: 240 nM
EC50 (NCI-H1975): 8400 nM
IC50 [2]: 55 nM
EC50 (A-431): 7400 nM
IC50 [3]: 12 nM

C=CC(=O)NCCSc1nc(-c2ccccc2)c(-c2ccnc(Nc3ccccc3)c2)[nH]1
IC50 [1]: 29 nM
EC50 (NCI-H1975): 3200 nM
IC50 [2]: 12 nM
EC50 (A-431): 11000 nM
IC50 [3]: 1.7 nM

CCC(=O)Nc1cccc(Nc2cc(-c3[nH]c(SC)nc3-c3ccc(F)cc3)ccn2)c1
IC50 [6]: 223 nM
Activity [4]: inactive
IC50 [1]: 93 nM
EC50 (NCI-H1975): 2200 nM
IC50 [2]: 22 nM
EC50 (A-431): 1500 nM
IC50 [3]: 6.8 nM

CSc1nc(-c2ccc(F)cc2)c(-c2ccnc(Nc3cc(F)cc([N+](=O)[O-])c3)c2)[nH]1
IC50 [1]: 586 nM
EC50 (NCI-H1975): 30000 nM
IC50 [2]: 265 nM
EC50 (A-431): 19000 nM
IC50 [3]: 55 nM

C=CC(=O)N1CCC(Sc2nc(-c3ccc(F)cc3)c(-c3ccnc(Nc4ccccc4)c3)[nH]2)C1 (configuration not stated)
IC50 [1]: 417 nM
EC50 (NCI-H1975): 14000 nM
IC50 [2]: 217 nM
EC50 (A-431): 17000 nM
IC50 [3]: 25 nM

CCC(=O)NCCSc1nc(-c2ccc(F)cc2)c(-c2ccnc(Nc3ccccc3)c2)[nH]1
IC50 [1]: 52 nM
EC50 (NCI-H1975): 9700 nM
IC50 [2]: 33 nM
EC50 (A-431): 16000 nM
IC50 [3]: 3.2 nM

CN(C)C(=O)CSc1nc(-c2ccc(F)cc2)c(-c2ccnc(Nc3ccccc3)c2)[nH]1
EC50 (NCI-H1975): 16000 nM
EC50 (A-431): 18000 nM

C=CC(=O)Nc1ccc(OC)c(Nc2cc(-c3[nH]c(SC)nc3C(C)(C)C)ccn2)c1
IC50 [1]: 485 nM
EC50 (NCI-H1975): 18000 nM
IC50 [2]: 57 nM
EC50 (A-431): 20000 nM
IC50 [3]: 16 nM

C=CC(=O)Nc1cccc(Nc2cc(-c3[nH]c(SC)nc3-c3ccc(F)cc3)ccn2)n1
IC50 [1]: 3.1 nM
EC50 (NCI-H1975): 1500 nM
IC50 [2]: < 1 nM
EC50 (A-431): 1700 nM
IC50 [3]: < 1 nM

C=CC(=O)Nc1cccc(Nc2cc(-c3[nH]c(SCCNC(=O)CC)nc3-c3ccccc3)ccn2)c1
IC50 [1]: 2.5 nM
EC50 (NCI-H1975): 2800 nM
IC50 [2]: < 1 nM
EC50 (A-431): 1500 nM
IC50 [3]: < 1 nM

CCC(=O)Nc1ccc(OC)c(Nc2cc(-c3[nH]c(CCCO)nc3-c3ccc(F)cc3)ccn2)c1
IC50 [6]: 7 nM
IC50 [1]: < 1 nM
EC50 (NCI-H1975): 7200 nM
IC50 [2]: < 1 nM
EC50 (A-431): 17000 nM
IC50 [3]: < 1 nM
